How the values were obtained:
Pictilisib/GDC0941 = compound: CS(=O)(=O)N1CCN(Cc2cc3nc(-c4cccc5[nH]ncc45)nc(N4CCOCC4)c3s2)CC1 [Pictilisib/GDC0941]
Saracatinib/AZD0530 = compound: CN1CCN(CCOc2cc(OC3CCOCC3)c3c(Nc4c(Cl)ccc5c4OCO5)ncnc3c2)CC1 [Saracatinib/AZD0530]
Dasatinib = compound: Cc1nc(Nc2ncc(C(=O)Nc3c(C)cccc3Cl)s2)cc(N2CCN(CCO)CC2)n1 [Dasatinib]
Ceritinib/LDK378 = compound: Cc1cc(Nc2ncc(Cl)c(Nc3ccccc3S(=O)(=O)C(C)C)n2)c(OC(C)C)cc1C1CCNCC1 [Ceritinib/LDK378]
THZ1 = compound: CN(C)C/C=C/C(=O)Nc1ccc(C(=O)Nc2cccc(Nc3ncc(Cl)c(-c4c[nH]c5ccccc45)n3)c2)cc1 [THZ1]
AZD7762 = compound: NC(=O)Nc1cc(-c2cccc(F)c2)sc1C(=O)N[C@H]1CCCNC1 [AZD7762]
[1] = compound: CNc1nc(-c2ccc3c(N)n[nH]c3c2)cc(N2C[C@@H](C(=O)NC3CCCCC3)CC[C@H]2C)n1
SHP099 = compound: CC1(CCN(CC1)C2=CN=C(C(=N2)N)C3=C(C(=CC=C3)Cl)Cl)N [SHP099]
Neratinib/HKI272 = compound: CCOc1cc2ncc(C#N)c(Nc3ccc(OCc4ccccn4)c(Cl)c3)c2cc1NC(=O)/C=C/CN(C)C [Neratinib/HKI272]
LEE011/Ribociclib = compound: CN(C)C(=O)c1cc2cnc(Nc3ccc(N4CCNCC4)cn3)nc2n1C1CCCC1 [LEE011/Ribociclib]
Cabozantinib = compound: COc1cc2nccc(Oc3ccc(NC(=O)C4(C(=O)Nc5ccc(F)cc5)CC4)cc3)c2cc1OC [Cabozantinib]
AZD1775 = compound: C=CCn1c(=O)c2cnc(Nc3ccc(N4CCN(C)CC4)cc3)nc2n1-c1cccc(C(C)(C)O)n1 [AZD1775]
Tivantinib/ARQ197 = compound: O=C1NC(=O)[C@@H](c2cn3c4c(cccc24)CCC3)[C@@H]1c1c[nH]c2ccccc12 [Tivantinib/ARQ197]
Cediranib/AZD2171 = compound: COc1cc2c(Oc3ccc4[nH]c(C)cc4c3F)ncnc2cc1OCCCN1CCCC1 [Cediranib/AZD2171]
[2] = compound: CC(=O)c1c(C)c2cnc(Nc3ccc(N4CCNCC4)cn3)nc2n(C2CCCC2)c1=O
[3] = compound: Cc1nn(C)c(COc2ccc(N3CCN(S(=O)(=O)N(C)C)CC3)cc2)c1-c1cccc2c(CCCOc3cccc4ccccc34)c(C(=O)O)n(CCN3CCOCC3)c12
[4] = compound: CCCCOc1c(C(=O)c2c(F)cc(C)cc2F)c[nH]c2nncc1-2
Alpelisib/BYL719 = compound: Cc1nc(NC(=O)N2CCC[C@H]2C(N)=O)sc1-c1ccnc(C(C)(C)C(F)(F)F)c1 [Alpelisib/BYL719]
INK128/MLN0128 = compound: CC(C)n1nc(-c2ccc3oc(N)nc3c2)c2c(N)ncnc21 [INK128/MLN0128]
[5] = compound: COc1ccc2c(c1)[C@]1(C[C@H]1c1ccc3c(/C=C/c4ccc(CN5C[C@@H](C)O[C@@H](C)C5)cc4)n[nH]c3c1)C(=O)N2
AZD2014 = compound: CNC(=O)c1cccc(-c2ccc3c(N4CCOC[C@@H]4C)nc(N4CCOC[C@@H]4C)nc3n2)c1 [AZD2014]
Buparlisib/NVP-BKM120 = compound: Nc1cc(C(F)(F)F)c(-c2cc(N3CCOCC3)nc(N3CCOCC3)n2)cn1 [Buparlisib/NVP-BKM120]
R0-3306 = compound: C1=CC2=C(C=CC(=C2)C=C3C(=O)NC(=NCC4=CC=CS4)S3)N=C1 [R0-3306]
BVD523 = compound: CC(C)Nc1cc(-c2c[nH]c(C(=O)N[C@H](CO)c3cccc(Cl)c3)c2)c(Cl)cn1 [BVD523]
Volasertib/BI6727 = compound: CC[C@@H]1C(=O)N(C)c2cnc(Nc3ccc(C(=O)N[C@H]4CC[C@H](N5CCN(CC6CC6)CC5)CC4)cc3OC)nc2N1C(C)C [Volasertib/BI6727]
AZD5363 = compound: NC1(C(=O)N[C@@H](CCO)c2ccc(Cl)cc2)CCN(c2nc[nH]c3nccc2-3)CC1 [AZD5363]
BSJ-03-123 = compound: CC(=O)c1c(C)c2cnc(Nc3ccc(N4CCN(CCOCCOCCOCCNC(=O)COc5cccc6c5C(=O)N(C5CCC(=O)NC5=O)C6=O)CC4)cn3)nc2n(C2CCCC2)c1=O [BSJ-03-123]
Vorinostat = compound: O=C(CCCCCCC(=O)Nc1ccccc1)NO [Vorinostat]
Rucaparib = compound: CNCc1ccc(-c2[nH]c3cc(F)cc4c3c2CCNC4=O)cc1 [Rucaparib]
[6] = compound: CCc1cnn2c(NCc3ccc[n+]([O-])c3)cc(N3CCCC[C@H]3CCO)nc12
[7] = compound: CO[C@@H](C)Cn1c(=O)n(C)c2cnc3ccc(-c4cncc(C(C)(C)O)c4)cc3c21
[8] = compound: CCC1=CN=CN=C1N2CCN(CC2)CC3=NC4=C(N3)C=C(C=C4)C(F)(F)F
Torin2 = compound: C1=CC(=CC(=C1)N2C(=O)C=CC3=CN=C4C=CC(=CC4=C32)C5=CN=C(C=C5)N)C(F)(F)F [Torin2]
senexin b = compound: CN1CCN(C(=O)c2ccc3cc(CCNc4ncnc5ccc(C#N)cc45)ccc3c2)CC1 [senexin b]
THZ-P1-2 = compound: CN(C)C/C=C/C(=O)NC1=CC=C(C=C1)C(=O)NC2=CC=CC(=C2)NC3=NC=NC(=C3)C4=CNC5=CC=CC=C54 [THZ-P1-2]
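Further: breast cancer and non-malignant breast epithelial cell lines, Deep Dye Drop or Dye Drop imaging, nine half-log doses, GR normalized to time-zero plates and DMSO-only controls.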

| Cell Line | GR50, 72 h (Pictilisib/GDC0941) [µM] | GR50, 72 h (Saracatinib/AZD0530) [µM] | GR50, 72 h (Dasatinib) [µM] | GR50, 72 h (Ceritinib/LDK378) [µM] | GR50, 72 h (THZ1) [µM] | GR50, 72 h (AZD7762) [µM] | GR50, 72 h [1] [µM] | GR50, 72 h (SHP099) [µM] | GR50, 72 h (Neratinib/HKI272) [µM] | GR50, 72 h (LEE011/Ribociclib) [µM] | GR50, 72 h (Cabozantinib) [µM] | GR50, 72 h (AZD1775) [µM] | GR50, 72 h (Tivantinib/ARQ197) [µM] | GR50, 72 h (Cediranib/AZD2171) [µM] | GR50, 72 h [2] [µM] | GR50, 72 h [3] [µM] | GR50, 72 h [4] [µM] | GR50, 72 h (Alpelisib/BYL719) [µM] | GR50, 72 h (INK128/MLN0128) [µM] | GR50, 72 h [5] [µM] | GR50, 72 h (AZD2014) [µM] | GR50, 72 h (Buparlisib/NVP-BKM120) [µM] | GR50, 72 h (R0-3306) [µM] | GR50, 72 h (BVD523) [µM] | GR50, 72 h (Volasertib/BI6727) [µM] | GR50, 72 h (AZD5363) [µM] | GR50, 72 h (BSJ-03-123) [µM] | GR50, 72 h (Vorinostat) [µM] | GR50, 72 h (Rucaparib) [µM] | GR50, 72 h [6] [µM] | GR50, 72 h [7] [µM] | GR50, 72 h [8] [µM] | GR50, 72 h (Torin2) [µM] | GR50, 72 h (senexin b) [µM] | GR50, 72 h (THZ-P1-2) [µM] |
| --- | --- | --- | --- | --- | --- | --- | --- | --- | --- | --- | --- | --- | --- | --- | --- | --- | --- | --- | --- | --- | --- | --- | --- | --- | --- | --- | --- | --- | --- | --- | --- | --- | --- | --- | --- |
| MDAMB453 | 0.455 | 8.37 | > 10 | 0.37 | 0.0116 | 0.0116 | 2.12 | > 10 | 0.0361 | 0.0388 | 9.71 | 0.112 | 0.201 | 2.79 | 0.0428 | > 10 | 0.811 | 0.538 | 0.00996 | 0.00348 | 0.00364 | 0.694 | 5.95 | 7.79 | 0.00726 | 1.55 | 1.8 | 0.944 | 6.58 | 0.0114 | < 0.001 | 4.29 | 0.0086 | 3.93 | – |
| CAL851 | 0.647 | 0.871 | 0.105 | 0.74 | 0.0085 | 0.0421 | > 10 | > 10 | 0.0339 | > 10 | 5.34 | 0.212 | 0.198 | 2.38 | > 3.16 | > 10 | 0.00814 | 3.64 | 0.00883 | 0.00209 | 0.00819 | 0.343 | 6.55 | – | 0.00327 | > 10 | 0.431 | 1.2 | – | 0.00469 | < 0.001 | > 10 | 0.00862 | > 10 | – |
| PDX1328 | 0.878 | 0.987 | 0.0279 | 0.629 | 0.0106 | 0.0284 | > 10 | > 10 | 0.264 | 0.349 | 6.29 | 0.00554 | 0.239 | 4.04 | 0.168 | > 10 | > 10 | 1.57 | 0.00569 | 0.00595 | – | 0.528 | – | > 10 | 0.00437 | > 10 | – | 0.687 | > 10 | 0.0148 | 0.00195 | > 10 | 0.00494 | > 10 | > 10 |
| HCC1187 | 0.571 | 0.258 | 0.0343 | 1.49 | 0.0149 | 0.0508 | > 10 | > 10 | 2.5 | > 10 | – | 0.0228 | 0.0418 | – | > 3.16 | > 10 | – | > 10 | 0.0661 | 0.00763 | – | 0.619 | – | > 10 | 0.0078 | – | 6.39 | 1.07 | > 10 | 0.00577 | 1.12 | > 10 | 0.00305 | > 10 | – |
| UACC812 | 0.106 | 0.0189 | 0.00102 | 3.48 | 0.691 | 0.00748 | 0.884 | > 10 | 0.00313 | 0.0124 | 5.86 | 3.03 | 0.175 | 1.04 | 0.0179 | > 10 | < 0.001 | 0.588 | 0.0021 | 0.0127 | < 0.001 | 0.0515 | 5.09 | 1.32 | 0.00975 | 8.81 | 0.836 | 1.12 | > 10 | 0.0303 | < 0.001 | 2.01 | 0.00356 | – | 3.78 |
| MDAMB361 | 0.0792 | 0.426 | 0.268 | 0.266 | 0.00852 | 0.00768 | 0.0407 | > 10 | 0.152 | < 0.001 | > 10 | 0.00493 | 0.342 | 2.22 | 0.0196 | > 10 | – | 0.223 | 0.00362 | 0.00573 | < 0.001 | 0.218 | 5.8 | 0.476 | 0.00352 | 0.654 | 0.297 | 0.762 | – | 0.0118 | < 0.001 | 7.23 | 0.00507 | 1.62 | – |
| MDAMB157 | 2.05 | 5.23 | 0.0605 | 0.484 | – | 0.0154 | – | – | 0.796 | – | 2.78 | – | 0.777 | 0.825 | > 3.16 | > 10 | – | 9.77 | 0.0318 | – | – | 1.28 | – | – | 0.00692 | – | – | 1.1 | – | 0.0177 | – | 3.78 | 0.0344 | – | – |

Reference: the supplement of paper PMC9663587
